Several values for one entry are separate records, joined by “and”; a condition that tells them apart may be missing. Equal values may be shown once.
Legend:
[1] = tested on: HIV transcripts (TAR, LLTR, Pol, PolyA, TatRev); assay: Latency reversal assay: cell-associated HIV transcripts (RT-ddPCR) 24 hours after anti-CD3/CD28 activation of PBMCs from ART-suppressed PWH; format: cell-based; set-up: key to TatRev: % of activated DMSO control, normalized to 1 μg total RNA; Elongated (LLTR) HIV transcripts, median relative to activated DMSO, initial screening / Midtranscribed (Pol) HIV transcripts, median relative to activated DMSO, initial screening / Multiply spliced (TatRev) HIV transcripts, median relative to activated DMSO, initial screening: concentration or dose not given beside the values; settings: for HIV transcriptional elongation, ratio LLTR/TAR: compared with activated DMSO, Figure 3B; for Pol HIV transcripts (DMSO αCD3/28 = 100) / PolyA HIV transcripts (DMSO αCD3/28 = 100) / TatRev HIV transcripts (DMSO αCD3/28 = 100): αCD3/28-activated, ruxolitinib 4μM, triptolide 25-50nM, alvocidib 40nM, dinaciclib 8nM, AZD4573 8nM, quercetin 5μM, pladienolide B 10nM, isoginkgetin 25μM, herboxidiene 5nM, KRIBB11 2.5μM, tanespimycin 5μM, mithramycin A 25nM; for PolyA / TatRev: DMSO+αCD3/28 = 100, Fig 3A; for LLTR/TAR / PolyA/LLTR / TatRev/PolyA: DMSO+CD3/28 = 1, Fig 3B, C and D
Outline: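 PBMCs from ART-suppressed people with HIV (6 × 10^6 cells/well) treated with drug in DMSO, activated with anti-CD3/CD28 beads with antiretrovirals, harvested after 24 hours. TAR, LLTR, Pol, PolyA and TatRev transcripts measured by RT-ddPCR, normalized to 1 μg total RNA, expressed as % of activated DMSO control.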

[2] = tested on: PBMCs; assay: Total number of live cells (proliferation) by trypan blue staining at day 6; format: cell-based, human; settings: for Total live cell numbers (proliferation) compared with activated DMSO (in words) / Total number of live cells (Fig 6A): day 6; for Total live cell numbers (proliferation) compared with activated DMSO (in words): Figure 6A; for Fig 6B: total live cells relative to DMSO+CD3/28: DMSO+CD3/28 = 100
Procedure: Some of our candidate LPAs can block the effects of T cell activation, which could affect T cell proliferation. Therefore, we evaluated the extent to which variations in the level of infected cells may contribute to reductions in different HIV RNA transcripts. We measured the total number of viable cells (as a measure of proliferation) and the conserved U3-U5 LTR HIV DNA region (as a measure of total infection frequency) at day 6.
(A) After 6 days, the total number of live cells was measured by trypan blue staining and then normalized to the levels of the activated DMSO (% of activated DMSO). All conditions were tested in the presence of CD3^+/CD28^+ T cell–activating beads, except for the unactivated DMSO condition. Bars indicate medians, and different colors indicate individual study participants. Comparisons were performed using Wilcoxon’s signed-rank test. (B) Total cellular DNA was extracted, and the levels of U3-U5 HIV DNA were measured to quantify infection frequency at 6 days. HIV DNA levels were normalized to copies per 10^6 cells using the input of cellular DNA (assuming 1 μg of total DNA corresponds to 160,000 cells) and then normalized to the activated DMSO control (% of activated DMSO). Bars indicate medians, and different colors indicate individual study participants.

[3] = 5nM, 24 h after αCD3/28 activation, each column one participant
[4] = initial screening, 2 participants, 24 hours, Supplemental Figure 2

## CO[C@H]([C@@H](C)[C@H]1O[C@]1(C)C[C@H](C)/C=C/C=C(\C)[C@H]1O[C@@H](CC(=O)O)CC[C@@H]1C)[C@@H](C)O [herboxidiene]
[1]; [3]
  LLTR HIV transcripts (DMSO+αCD3/28 = 100): 81.19 and 43.81 and 65.61 and 39.82 and 46.55 and 19.9 and 41.59
  Pol HIV transcripts (DMSO+αCD3/28 = 100): 51.16 and 73 and 22.91 and 16.22 and 3.35 and 168.38
  TAR HIV transcripts (DMSO+αCD3/28 = 100): 84.02 and 77.63 and 124.48 and 122.07 and 106.99 and 116.67
  TatRev HIV transcripts (DMSO+αCD3/28 = 100): 33.33 and 25.2 and 10.9 and 51.8 and 0 (2×)
[1]; 24 hours
  HIV transcriptional elongation, ratio LLTR/TAR: Significant reductions
[1]; initial screening, 2 participants, 24 hours
  Reduction of multiply spliced or completed HIV transcripts in drug screen (selection as candidate LPA): more than 50%
[1]; initial screening, 2 participants, 24 hours, Figure 1B, Supplemental Figure 2
  Multiply spliced (TatRev) HIV transcripts, median relative to activated DMSO, initial screening: 23%
[1]; participant 150b
  Pol HIV transcripts (DMSO αCD3/28 = 100): 43.29
  PolyA HIV transcripts (DMSO αCD3/28 = 100): 23.53
  TatRev HIV transcripts (DMSO αCD3/28 = 100): 2.69
[1]; participant 1379
  Pol HIV transcripts (DMSO αCD3/28 = 100): 47.94
  PolyA HIV transcripts (DMSO αCD3/28 = 100): 28.08
  TatRev HIV transcripts (DMSO αCD3/28 = 100): 171.43
[1]; participant 2027
  Pol HIV transcripts (DMSO αCD3/28 = 100): 133.33
  PolyA HIV transcripts (DMSO αCD3/28 = 100): 36.92
  TatRev HIV transcripts (DMSO αCD3/28 = 100): 0
[1]; participant 2147a
  Pol HIV transcripts (DMSO αCD3/28 = 100): 105.88
  PolyA HIV transcripts (DMSO αCD3/28 = 100): 21.76
  TatRev HIV transcripts (DMSO αCD3/28 = 100): 28.42
[1]; participant 2161
  Pol HIV transcripts (DMSO αCD3/28 = 100): 169.45
  PolyA HIV transcripts (DMSO αCD3/28 = 100): 268.67
  TatRev HIV transcripts (DMSO αCD3/28 = 100): 176.87
[1]; participant 2256
  Pol HIV transcripts (DMSO αCD3/28 = 100): 18.46
  PolyA HIV transcripts (DMSO αCD3/28 = 100): 16.27
  TatRev HIV transcripts (DMSO αCD3/28 = 100): 1.4
[1]; participant 2461
  PolyA HIV transcripts (DMSO αCD3/28 = 100): 1692.31
[1]; participant 5557
  Pol HIV transcripts (DMSO αCD3/28 = 100): 23.16
  PolyA HIV transcripts (DMSO αCD3/28 = 100): 23.33
  TatRev HIV transcripts (DMSO αCD3/28 = 100): 0
[1]; study participant 150a, 24 hours
  Multiply spliced HIV transcripts (TatRev) (Fig 1B): 33.33 % of activated DMSO
[1]; study participant 150a
  PolyA: 73.21
  TatRev: 33.33
[1]; study participant 1379
  LLTR/TAR: 0.186
  PolyA/LLTR: 0.4248
  TatRev/PolyA: 0
  PolyA: 8.45
  TatRev: 0
[1]; study participant 2027
  LLTR/TAR: 0.85
  PolyA/LLTR: 0.67
  PolyA: 43.76
[1]; study participant 2147b, 24 hours
  Multiply spliced HIV transcripts (TatRev) (Fig 1B): 12.13 % of activated DMSO
[1]; study participant 2147b
  LLTR/TAR: 0.2964
  PolyA/LLTR: 0.9546
  TatRev/PolyA: 0.3499
  PolyA: 22.4
  TatRev: 10.9
[1]; study participant 2256
  LLTR/TAR: 0.3813
  PolyA/LLTR: 0.9973
  TatRev/PolyA: 1.116
  PolyA: 46.43
  TatRev: 51.8
[1]; study participant 2750
  LLTR/TAR: 0.5214
  PolyA/LLTR: 1.543
  TatRev/PolyA: 0.3728
  PolyA: 67.59
  TatRev: 25.2
[1]; study participant 5557
  LLTR/TAR: 0.3565
  PolyA/LLTR: 0.117
  TatRev/PolyA: 0
  PolyA: 4.86
  TatRev: 0
[2]
  Total live cell numbers (proliferation) compared with activated DMSO (in words): did not change proliferation rates
[2]; participant 150b
  Fig 6B: total live cells relative to DMSO+CD3/28: 68
[2]; participant 1379
  Fig 6B: total live cells relative to DMSO+CD3/28: 22.5
[2]; participant 2027
  Fig 6B: total live cells relative to DMSO+CD3/28: 98.18
[2]; participant 2147a
  Fig 6B: total live cells relative to DMSO+CD3/28: 103.96
[2]; participant 2147b
  Fig 6B: total live cells relative to DMSO+CD3/28: 121.98
[2]; participant 2161
  Fig 6B: total live cells relative to DMSO+CD3/28: 132.2
[2]; participant 2256
  Fig 6B: total live cells relative to DMSO+CD3/28: 89.47
[2]; participant 2461
  Fig 6B: total live cells relative to DMSO+CD3/28: 80.23
[2]; participant 5557
  Fig 6B: total live cells relative to DMSO+CD3/28: 117.65
[2]; study participant 1379
  Total number of live cells (Fig 6A): 82.06 % of activated DMSO
[2]; study participant 2027
  Total number of live cells (Fig 6A): 34.68 % of activated DMSO
[2]; study participant 2147a
  Total number of live cells (Fig 6A): 115.89 % of activated DMSO
[2]; study participant 2147b
  Total number of live cells (Fig 6A): 188.02 % of activated DMSO
[2]; study participant 2161
  Total number of live cells (Fig 6A): 72.75 % of activated DMSO
[2]; study participant 2256
  Total number of live cells (Fig 6A): 87.5 % of activated DMSO
[2]; study participant 2461
  Total number of live cells (Fig 6A): 32.33 % of activated DMSO
[2]; study participant 5557
  Total number of live cells (Fig 6A): 99.29 % of activated DMSO

## N#CC[C@H](C1CCCC1)n1cc(-c2ncnc3[nH]ccc23)cn1 [ruxolitinib]
[1]; Human immunodeficiency virus 1, PBMC, 24 h, 4μM, 24 h after αCD3/28 activation, each column one participant, read-out: TAR HIV transcripts (DMSO+αCD3/28 = 100)
  mrna remaining at 4 µM: 34.5%
[2]
  Total live cell numbers (proliferation) compared with activated DMSO (in words): significantly lower

## C=CCNC1=C2C[C@@H](C)C[C@H](OC)[C@H](O)[C@@H](C)/C=C(\C)[C@H](OC(N)=O)[C@@H](OC)/C=C\C=C(/C)C(=O)NC(=CC1=O)C2=O [tanespimycin]
[1]; 24 hours
  HIV transcriptional elongation, ratio LLTR/TAR: inhibited
[1]; [4]
  Elongated (LLTR) HIV transcripts, median relative to activated DMSO, initial screening: 49%
  Midtranscribed (Pol) HIV transcripts, median relative to activated DMSO, initial screening: 31%
[2]
  Total live cell numbers (proliferation) compared with activated DMSO (in words): significantly lower

Source: PMC11466185, “Mechanisms and efficacy of small molecule latency-promoting agents to inhibit HIV reactivation ex vivo” (JCI Insight, 2024)
